Usually GI50 stands for the concentration at which growth is held to half of that of the control. High values mean less potent growth inhibition, low ones more potent growth inhibition.

The target in one data set is T1, purified human TYMS (Homo sapiens, UniProt P04818).
T1 construct: 6xHis (N); made in house; host or cells: E. coli BL21 (DE3), vector pQE80L-hTYMS
Description: Tritium-based TYMS catalytic activity assay. Type of data set: biochemical. As to the method: To determine the inhibition of TYMS activity, we utilized a tritium-based TYMS catalytic assay (Figure 1A) to quantify the conversion of dUMP, which is proportional to TYMS activity ([33]). The assay was based on a previously published protocol ([33]) and modified to determine the amount of purified human TYMS (hTYMS) to be used in the conversion of dUMP to dTMP. […]
Tritium based TYMS catalytic activity assay
The catalytic activity of TYMS was determined by measuring the release of [3H] from [5-3H]dUMP (ViTrax, Cat # VT122) resulting from the conversion of dUMP to dTMP as previously described (2, 3).
The reaction conditions were optimized to determine the amount of TYMS protein needed to establish […]
reactions performed without TYMS or without the 5,10-methylene tetrahydrofolate (5,10-mTHF) cofactor (Supplemental Figure 2 and Supplemental methods). Reactions were performed in 50 mM KH2PO4 (Sigma Aldrich, Cat # P0662) at pH 7.2 using 2 µg of purified human TYMS. Reactions were performed in a final volume of 200 µL with 100 mM β-mercaptoethanol (Sigma Aldrich, Cat # M7522), 40 µM dUMP (Sigma Aldrich, Cat # D3876), 100 µM 5,10-mTHF, and the [5-3H]dUMP tracer (ViTrax, Cat # VT122) accounting for 0.06% of the final dUMP concentration in the reaction. The 5,10-mTHF used in the reaction was separately generated from tetrahydrofolic acid (Sigma Aldrich, Cat # T3125) by dissolving the solid in 10 mM KH2PO4 with 143 mM β-mercaptoethanol (1:100 from 14.3 M pure liquid), and 6.35 mM formaldehyde (Sigma Aldrich, Cat # 47608) to yield a 100 mM stock solution of 5,10- mTHF. Reactions were initiated by the addition of the dUMP substrate and 5,10-mTHF cofactor, then incubated at 37 °C for 30 minutes. […]
before the reaction was initiated by the addition of the dUMP substrate and 5,10-mTHF cofactor.
Reactions were terminated by the addition of 100 µL of ice-cold 20% trichloroacetic acid (Sigma Aldrich, Cat # T6399), then excess [5-3H]dUMP was removed by the addition of 200 µL of an albumin-coated activated charcoal solution. The albumin-coated activated charcoal solution was prepared by mixing 10 g of acid- washed activated dextran coated charcoal (Sigma Aldrich, Cat # C6241) with 2.5 g of bovine albumin (Sigma Aldrich, Cat # A1933) in 100 mL of H2O. The suspension was incubated at room temperature for 30 minutes and then centrifuged for 30 minutes at 10,000 x g. Then 150 µL of the supernatant was collected and added to 5 mL of ultima gold liquid scintillation cocktail (Perkin Elmer, Cat # 6013326, lot: 77-19085), and scintillation measurements were perform using a liquid scintillation counter (Beckman Coulter LS6500) to determine [3H]H2O levels in each sample. For all experiments, positive control reactions were performed with no drug representing 100% TYMS activity, and negative

The nature of a further data set: in vivo. To be noted: NSG, mouse, po.
The test system of a further data set is MIA PaCa-2 cells. As to the kind of experiment: MTS viability assay, MIA PaCa-2. Type of data set: cell-based. Conditions: Homo sapiens, 72-hour drug treatment, Figure 6E, highest concentration 350 μM. On the procedure:
Cells were harvested after 72 hours, and cell pellets were stored at –80°C. […] After 72 hours, cell viability was assessed by reduction of MTS using Cell Titer 96 R Aqueous One Solution Cell Proliferation Assay Kit (Promega, catalog G8081), following manufacturer’s recommendations. […] was measured on a SpectraMax M3 (Molecular Devices). Data were plotted in GraphPad Prism 9 to determine GI50 concentration. Chemical synthesis details, including characterization of each compound, can be found in the Supplemental section associated with this publication.
In general terms: Formazan colour is commonly taken as a measure of viable cells.

T1 sequence (P04818 whole entry): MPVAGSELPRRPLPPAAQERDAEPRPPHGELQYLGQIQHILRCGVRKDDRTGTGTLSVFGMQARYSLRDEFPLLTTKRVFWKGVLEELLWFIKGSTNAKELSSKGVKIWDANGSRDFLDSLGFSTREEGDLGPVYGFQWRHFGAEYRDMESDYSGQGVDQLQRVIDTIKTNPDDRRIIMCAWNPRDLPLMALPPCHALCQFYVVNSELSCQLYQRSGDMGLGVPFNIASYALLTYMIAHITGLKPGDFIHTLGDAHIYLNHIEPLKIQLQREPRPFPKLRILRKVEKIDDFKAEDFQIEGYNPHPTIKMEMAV
Description for in vivo: Maximum tolerated dose (MTD)
experiment) or 5, 10, 25 or 50 mg/kg of 5-FU daily during 5 consecutive days. After 3 treatment cycles,
animals rested (no treatment) for one more week before euthanasia. Body weight and physical status
of all mice were closely monitored. Tissues were collected and fixed in alcoholic formalin to test for
daily during 5 consecutive days for 3 weeks. After 3 treatment cycles, animals rested (no treatment) for
one more week before euthanasia. Body weight and physical status of all mice were closely monitored.
Tissues were collected and fixed in alcoholic formalin to test for toxicity.
Specimens were fixed in alcoholic formalin for 48h and then transferred to 70% ethanol, processed and
embedded in paraffin. Tissues were serially sectioned and stained by conventional H&E. Slides were

`CCc1nc(N)nc(N)c1-c1ccc(N(C)Cc2ccc3c(c2)OCO3)c([N+](=O)[O-])c1` [Compound 19-S7]: the “TS activity, screen of 19-S series analogs” value at purified human TYMS (250 μM, Figure 6A) is reported as “inhibited TYMS activity”. Besides, the “TS activity, comparison at decreasing drug concentrations” value on purified human TYMS (Figure 6C) was “greater TYMS inhibition than both MTX and PEM”. The compound also returned an MTD at 3 weeks in the data set “in vivo” of 25 mg/kg. The same compound returned a GI50 in the data set with MIA PaCa-2 cells of 200 nM.
